Measurements taken from patent US10716762B2, “Transmucosal administration system for a pharmaceutical drug” (LTS Lohmann Therapie-Systeme AG, priority 2012, dated 2020).

Columns and labels:
[1] = Pharmacokinetics of idebenone after oromucosal (oral wafer) vs. oral (gavage) administration, three way cross-over study; type: in vivo, female Beagle dogs; details: oral administration by gavage vs. oral-mucosal application
Method: Plasma levels of idebenone were studied after the administration of two different thin film formulations (oral wafers) administered via the oromucosal route and compared to the profile obtained when idebenone is dosed by the oral route (gavage) in a micro-emulsion. The doses used in this study were 30 mg oromucosal (oral wafer A, suspension type), 15 mg oromucosal (oral wafer B, solid solution type) and 300 mg oral (TPGS/Miglyol microemulsion administered by oral gavage). The study was a three way cross-over study with one week wash-out between administrations. Formulations were administered to female Beagle dogs under fasted conditions. The pharmacokinetic exposure of free (unconjugated) idebenone and its total metabolites (total idebenone, total QS10, total QS6, and total QS4) was determined for each formulation.
Blood samples were collected at several time points over 6 hours after administration. Concentrations of idebenone in plasma were measured by HPLC-MS/MS and pharmacokinetic parameters were calculated.
For this, idebenone was separated and quantified by HPLC-MS/MS: For HPLC, a SYNERGI™ 4μ MAX-RP (50×2 mm) column (Phenomenex. Schlieren, Switzerland) was used. Column temperature: 50° C. […]
Once separated, idebenone was quantified by ESI-MS/MS (API 4000, Perkin-Elmer-Europe BV, Rotkreuz, Switzerland) in positive mode. […]

[2] = First-pass metabolism of idebenone through the liver after oral administration; type: in vivo; details: after absorption in the gut
Description: As a lipophilic compound idebenone is well absorbed in the gastrointestinal tract after conventional oral administration, which is the normal route for administering said compound. Dosage forms such as tablets or capsules have been used in clinical trials and as marketed product. In the course of our investigations on the pharmacological profile of idebenone, we discovered that the compound, after being absorbed in the gut, is metabolized very quickly during its first passage through the liver (“first-pass-effect”). […] Hepatic metabolism of idebenone results in side chain oxidation, reduction of the quinone ring, sulphate and glucuronide conjugation and subsequent renal excretion. The high liver metabolism greatly reduces the potentially high plasma levels of the pharmacologically active idebenone. Because of this strong first pass metabolism, oral administration of idebenone requires high doses of the compound to achieve pharmacologically efficacious plasma levels in the body. Said high doses can result in unwanted side effects such as diarrhea.

[3] = 536 patients, up to 360 mg t.i.d.; Thal et al., Neurology 61 (2003); cited from earlier work

## COC1=C(OC)C(=O)C(CCCCCCCCCCO)=C(C)C1=O [idebenone, 2,3-dimethoxy-5-methyl-6-(10-hydroxydecyl)-1,4-benzoquinone]
[1]
  metabolic spectrum of idebenone: comparable
[2]
  idebenone metabolized during its first passage through the liver: more than 98%
[3]
  treatment emergent adverse events compared to placebo: no treatment emergent adverse events except some gastrointestinal irritations as well as a slight increase in orthopedic events
